Results taken from US9688676B2, “Tyrosine kinase inhibitors” (PRINCIPIA BIOPHARMA INC., priority 2015, dated 2017).

Tests used:
BTK [1] = biological target: T1, BTK (Homo sapiens (Human), UniProt Q06187); assay: Determination of drug-kinase residence time (TR-FRET tracer competition, occupancy after washout); type: binding; settings: 1.5 μM compound, 500 nM BTK; for % occupany at 1 h: 1 h of washout; for % occupany at 6 h: 6 h of washout; for % occupany at 24 h: 24 h of washout
Description: The experiment was conducted in a buffer consisting of 50 mM Hepes pH 7.5, 10 mM MgCl2, 0.01% Triton X-100, and 1 mM EGTA.
The mixture was then diluted 5-fold by addition of 40 μL of buffer. […] In order to probe for reversibility of the kinase-compound binding interaction, a competition solution containing both a high affinity fluorescent tracer and an antibody coupled to Europium was prepared. […] The competition solution also contained 80 nM of an Anti-polyhistidine antibody coupled to Europium (Invitrogen Cat. #PV5596) which is designed to bind the polyhistidine purification tag in BTK.
It is to be expected that covalent and slow dissociating inhibitors will block binding of the tracer while rapidly dissociating non-covalent inhibitors will not. […] Data were plotted at percentage of signal obtained in the absence of competitor compound. The background signal was obtained by omission of BTK from the reaction. […] If the compound is a reversible covalent inhibitor, the tracer will bind the target as the compound dissociates from the target.

BTK [2] = biological target: T1, BTK; assay: BTK enzymatic activity assay (Caliper-based kinase assay); type: biochemical; settings: human recombinant BTK 0.5 nM, ATP 16 μM, 3 h room temperature
Description: A Caliper-based kinase assay (Caliper Life Sciences, Hopkinton, Mass.) was used to measure inhibition of BTK kinase activity of a compound of the present disclosure. […] The reaction was then terminated with EDTA, final concentration 20 mM and the phosphorylated reaction product was quantified on a Caliper Desktop Profiler (Caliper LabChip 3000). […] This value is presented as the IC50.

T1 sequence (Q06187 whole entry): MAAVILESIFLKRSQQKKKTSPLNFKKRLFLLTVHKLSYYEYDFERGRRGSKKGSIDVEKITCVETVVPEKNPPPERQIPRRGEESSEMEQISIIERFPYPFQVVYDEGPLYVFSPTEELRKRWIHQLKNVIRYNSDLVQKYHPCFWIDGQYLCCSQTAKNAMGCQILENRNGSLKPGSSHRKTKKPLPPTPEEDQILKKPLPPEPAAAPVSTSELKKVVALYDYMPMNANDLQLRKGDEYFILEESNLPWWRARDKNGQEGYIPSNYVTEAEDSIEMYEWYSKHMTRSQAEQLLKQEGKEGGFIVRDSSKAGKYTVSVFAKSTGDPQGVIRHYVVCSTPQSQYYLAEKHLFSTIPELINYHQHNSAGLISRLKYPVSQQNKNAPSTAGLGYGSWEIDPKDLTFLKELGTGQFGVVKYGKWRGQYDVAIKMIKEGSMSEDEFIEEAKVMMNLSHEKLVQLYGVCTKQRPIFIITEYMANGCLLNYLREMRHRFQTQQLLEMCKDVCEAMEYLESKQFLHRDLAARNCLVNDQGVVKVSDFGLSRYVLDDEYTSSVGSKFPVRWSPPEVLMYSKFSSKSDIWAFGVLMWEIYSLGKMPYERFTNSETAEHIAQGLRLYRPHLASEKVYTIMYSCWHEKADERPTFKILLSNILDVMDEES

% occupany at 1 h (BTK [1])	% occupany at 6 h (BTK [1])	% occupany at 24 h (BTK [1])	IC50 (BTK [2])	Compound
97.036%	82.199%	70.975%	8.2 nM	CC(C)(C)C=C(C#N)C(=O)N1CCC[C@@H](n2c(=O)n(-c3ccc(Oc4ccccc4)cc3)c3c(N)nccc32)C1 [Compound 1, (R)-2-(3-(4-amino-2-oxo-3-(4-phenoxyphenyl)-2,3-dihydro-1H-imidazo[4,5-c]pyridin-1-yl)piperidine-1-carbonyl)-4,4-dimethylpent-2-enenitrile]
93.602%	85.49%	65.826%	9.1 nM	N#CC(=CC1CCOCC1)C(=O)N1CCC[C@@H](n2c(=O)n(-c3ccc(Oc4ccccc4)cc3)c3c(N)nccc32)C1 [Compound 2, (R)-2-(3-(4-amino-2-oxo-3-(4-phenoxyphenyl)-2,3-dihydro-1H-imidazo[4,5-c]pyridin-1-yl)piperidine-1-carbonyl)-3-(tetrahydro-2H-pyran-4-yl)acrylonitrile]
65.626%	58.519%	46.073%	21.6 nM	CC1(C=C(C#N)C(=O)N2CCC[C@@H](n3c(=O)n(-c4ccc(Oc5ccccc5)cc4)c4c(N)nccc43)C2)CCC1 [Compound 3, (R)-2-(3-(4-amino-2-oxo-3-(4-phenoxyphenyl)-2,3-dihydro-1H-imidazo[4,5-c]pyridin-1-yl)piperidine-1-carbonyl)-3-(1-methylcyclobutyl)acrylonitrile]
90.005%	66.344%	18.2%	7.8 nM	CC(C)(C=C(C#N)C(=O)N1CCC[C@@H](n2c(=O)n(-c3ccc(Oc4ccccc4)cc3)c3c(N)nccc32)C1)N1CCOCC1 [Compound 4, (R)-2-(3-(4-amino-2-oxo-3-(4-phenoxyphenyl)-2,3-dihydro-1H-imidazo[4,5-c]pyridin-1-yl)piperidine-1-carbonyl)-4-methyl-4-morpholinopent-2-enenitrile]
93.773%	83.103%	57.488%	2.5 nM	CC(C)(C=C(C#N)C(=O)N1CCC[C@@H](n2c(=O)n(-c3ccc(Oc4ccccc4)cc3)c3c(N)nccc32)C1)N1CCN(C2COC2)CC1 [Compound 5, (R)-2-(3-(4-amino-2-oxo-3-(4-phenoxyphenyl)-2,3-dihydro-1H-imidazo[4,5-c]pyridin-1-yl)piperidine-1-carbonyl)-4-methyl-4-(4-(oxetan-3-yl)piperazin-1-yl)pent-2-enenitrile]
94.404%	86.64%	67.505%	5.9 nM	CC(C)(C=C(C#N)C(=O)N1CCC[C@@H](n2c(=O)n(-c3ccc(Oc4ccccc4)cc3)c3c(N)nccc32)C1)N1CCN(CC(F)(F)F)CC1 [Compound 6, (R)-2-(3-(4-amino-2-oxo-3-(4-phenoxyphenyl)-2,3-dihydro-1H-imidazo[4,5-c]pyridin-1-yl)piperidine-1-carbonyl)-4-methyl-4-(4-(2,2,2-trifluoroethyl)piperazin-1-yl)pent-2-enenitrile]
61.932%	−1.3946%	−12.344%	1.8 nM	CN1CCC(C(C)(C)C=C(C#N)C(=O)N2CCC[C@@H](n3c(=O)n(-c4ccc(Oc5ccccc5)cc4)c4c(N)nccc43)C2)CC1 [Compound 7, (R)-2-(3-(4-amino-2-oxo-3-(4-phenoxyphenyl)-2,3-dihydro-1H-imidazo[4,5-c]pyridin-1-yl)piperidine-1-carbonyl)-4-methyl-4-(1-methylpiperidin-4-yl)pent-2-enenitrile]
93.335%	89.195%	80.873%	23.9 nM	N#CC(=CC1CCC1)C(=O)N1CCC[C@@H](n2c(=O)n(-c3ccc(Oc4ccccc4)cc3)c3c(N)nccc32)C1 [Compound 8, (R)-2-(3-(4-amino-2-oxo-3-(4-phenoxyphenyl)-2,3-dihydro-1H-imidazo[4,5-c]pyridin-1-yl)piperidine-1-carbonyl)-3-cyclobutylacrylonitrile]
93.363%	70.733%	31.4%	7.8 nM	COCCN1CCN(C(C)(C)C=C(C#N)C(=O)N2CCC[C@@H](n3c(=O)n(-c4ccc(Oc5ccccc5)cc4)c4c(N)nccc43)C2)CC1 [Compound 9, (R)-2-(3-(4-amino-2-oxo-3-(4-phenoxyphenyl)-2,3-dihydro-1H-imidazo[4,5-c]pyridin-1-yl)piperidine-1-carbonyl)-4-(4-(2-methoxyethyl)piperazin-1-yl)-4-methylpent-2-enenitrile]
94.392%	77.985%	49.145%	7 nM	COC(=O)N1CCN(C(C)(C)C=C(C#N)C(=O)N2CCC[C@@H](n3c(=O)n(-c4ccc(Oc5ccccc5)cc4)c4c(N)nccc43)C2)CC1 [Compound 10, (R)-methyl 4-(5-(3-(4-amino-2-oxo-3-(4-phenoxyphenyl)-2,3-dihydro-1H-imidazo[4,5-c]pyridin-1-yl)piperidin-1-yl)-4-cyano-2-methyl-5-oxopent-3-en-2-yl)piperazine-1-carboxylate]
95.906%	96.44%	90.847%	6.6 nM	CC(C)(C)C=C(C#N)C(=O)N1CCC[C@H]1Cn1c(=O)n(-c2ccc(Oc3ccccc3)cc2)c2c(N)nccc21 [Compound 12, (S)-2-(2-((4-amino-2-oxo-3-(4-phenoxyphenyl)-2,3-dihydro-1H-imidazo[4,5-c]pyridin-1-yl)methyl)pyrrolidine-1-carbonyl)-4,4-dimethylpent-2-enenitrile]
91.54%	83.963%	49.152%	21.1 nM	CC(C)(C=C(C#N)C(=O)N1CCC[C@H]1Cn1c(=O)n(-c2ccc(Oc3ccccc3)cc2)c2c(N)nccc21)N1CCN(C2COC2)CC1 [Compound 13, (S)-2-(2-((4-amino-2-oxo-3-(4-phenoxyphenyl)-2,3-dihydro-1H-imidazo[4,5-c]pyridin-1-yl)methyl)pyrrolidine-1-carbonyl)-4-methyl-4-(4-(oxetan-3-yl)piperazin-1-yl)pent-2-enenitrile]
91.481%	76.396%	22.922%	17.2 nM	CC(C)(C=C(C#N)C(=O)N1CCC[C@H]1Cn1c(=O)n(-c2ccc(Oc3ccccc3)cc2)c2c(N)nccc21)N1CCOCC1 [Compound 14, (S)-2-(2-((4-amino-2-oxo-3-(4-phenoxyphenyl)-2,3-dihydro-1H-imidazo[4,5-c]pyridin-1-yl)methyl)pyrrolidine-1-carbonyl)-4-methyl-4-morpholinopent-2-enenitrile]
91.927%	85.356%	50.188%	72.3 nM	COC(=O)N1CCN(C(C)(C)C=C(C#N)C(=O)N2CCC[C@H]2Cn2c(=O)n(-c3ccc(Oc4ccccc4)cc3)c3c(N)nccc32)CC1 [Compound 15, (S)-methyl 4-(5-(2-((4-amino-2-oxo-3-(4-phenoxyphenyl)-2,3-dihydro-1H-imidazo[4,5-c]pyridin-1-yl)methyl)pyrrolidin-1-yl)-4-cyano-2-methyl-5-oxopent-3-en-2-yl)piperazine-1-carboxylate]
81.247%	78.623%	74.744%	13.3 nM	CC#CC(=O)N1CCC[C@@H](n2c(=O)n(-c3ccc(Oc4ccccc4)cc3)c3c(N)nccc32)C1 [Compound 17, (R)-4-amino-1-(1-(but-2-ynoyl)piperidin-3-yl)-3-(4-phenoxyphenyl)-1H-imidazo[4,5-c]pyridin-2(3H)-one]
93.065%	73.513%	31.704%	3.7 nM	CN1CCN(C(C)(C)C=C(C#N)C(=O)N2CCC[C@@H](n3c(=O)n(-c4ccc(Oc5ccccc5)cc4)c4c(N)nccc43)C2)CC1=O [Compound 18, (R)-2-(3-(4-amino-2-oxo-3-(4-phenoxyphenyl)-2,3-dihydro-1H-imidazo[4,5-c]pyridin-1-yl)piperidine-1-carbonyl)-4-methyl-4-(4-methyl-3-oxopiperazin-1-yl)pent-2-enenitrile]
